Experimental data taken from the supplement of paper PMC10307832.

Key:
Assay in all cases: relative viability (nuclei count vs DMSO), 5 days (fraction); higher = more cells survive
[1] = compound: CC1=C(C(=NN1)C)CC2=C(C3=C(S2)N(C(=O)N(C3=O)C)CC(C)C)C(=O)N4C[C@@H](CO4)O + O=C(CCCCCCC(=O)Nc1ccccc1)NO [Vorinostat] (partner 1 µM)
Method in brief: (§1)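 Lung cancer cell lines were pin-tool dosed in 1536-well plates on the day after seeding, with either a lone drug or a fixed anchor-drug dose plus five library-drug doses (not always all listed) in √10 steps. Nuclei were counted on 4× images after 5 days. Relative viability is the ratio of treated-well to vehicle-well nuclei counts, with each value a median of duplicate plates.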

IDH-C35 + Navitoclax = compound: Cc1ccccc1C(C(=O)NC1CCCCC1)N(C(=O)Cn1ccnc1C)c1cccc(F)c1 [IDH-C35] + CC1(C)CCC(c2ccc(Cl)cc2)=C(CN2CCN(c3ccc(C(=O)NS(=O)(=O)c4ccc(N[C@H](CCN5CCOCC5)CSc5ccccc5)c(S(=O)(=O)C(F)(F)F)c4)cc3)CC2)C1 [Navitoclax] (partner 0.5 µM)
Method in brief: as §1

[2] = compound: CC1=C(C(=NN1)C)CC2=C(C3=C(S2)N(C(=O)N(C3=O)C)CC(C)C)C(=O)N4C[C@@H](CO4)O + COc1cccc2cc(-c3nc([C@H]4CC[C@H](C(=O)O)CC4)n4ncnc(N)c34)[nH]c12 [OSI-027] (partner 0.5 µM)
Method in brief: as §1

IDH-C35 + Linsitinib = compound: Cc1ccccc1C(C(=O)NC1CCCCC1)N(C(=O)Cn1ccnc1C)c1cccc(F)c1 [IDH-C35] + C[C@]1(O)C[C@@H](c2nc(-c3ccc4ccc(-c5ccccc5)nc4c3)c3c(N)nccn32)C1 [Linsitinib] (partner 1 µM)
Method in brief: as §1

Row | Cell Line | relative viability ([1]; first compound 0.0025 µM) | relative viability ([1]; first compound 0.007906 µM) | relative viability ([1]; first compound 0.025 µM) | relative viability ([1]; first compound 0.07906 µM) | relative viability ([1]; first compound 0.25 µM) | relative viability (IDH-C35 + Navitoclax; first compound 0.08 µM) | relative viability (IDH-C35 + Navitoclax; first compound 0.253 µM) | relative viability (IDH-C35 + Navitoclax; first compound 0.8 µM) | relative viability (IDH-C35 + Navitoclax; first compound 2.53 µM) | relative viability (IDH-C35 + Navitoclax; first compound 8 µM) | relative viability ([2]; first compound 0.0025 µM) | relative viability ([2]; first compound 0.007906 µM) | relative viability ([2]; first compound 0.025 µM) | relative viability ([2]; first compound 0.07906 µM) | relative viability ([2]; first compound 0.25 µM) | relative viability (IDH-C35 + Linsitinib; first compound 0.08 µM) | relative viability (IDH-C35 + Linsitinib; first compound 0.253 µM) | relative viability (IDH-C35 + Linsitinib; first compound 0.8 µM) | relative viability (IDH-C35 + Linsitinib; first compound 2.53 µM) | relative viability (IDH-C35 + Linsitinib; first compound 8 µM)
1 | NCI-H2347 | 0.588 | 0.624 | 0.544 | 0.559 | 0.431 | 0.766 | 0.765 | 0.801 | 0.851 | 0.742 | 0.472 | 0.496 | 0.444 | 0.331 | 0.354 | 0.973 | 0.932 | 1.01 | 0.987 | 0.918
2 | NCI-H2405 | 1.13 | 1.07 | 0.849 | 0.96 | 0.888 | 0.926 | 0.981 | 0.918 | – | 0.76 | 0.703 | 0.645 | – | 0.62 | 0.661 | 0.974 | 0.957 | 0.928 | – | 0.907
3 | NCI-H3122 | 1.03 | 1.12 | 1.1 | 0.731 | 0.918 | 1.03 | 0.997 | 0.96 | 1.01 | 1.08 | 0.912 | 0.765 | 0.927 | 1.04 | 0.989 | 0.991 | 0.971 | 0.972 | 1.01 | 1.02
4 | PC-3 [JPC-3] | 0.853 | 0.898 | 0.741 | 0.972 | 0.797 | 0.789 | 0.718 | 0.778 | 0.858 | 0.74 | 0.763 | 0.679 | 0.755 | 0.785 | 0.859 | 0.939 | 0.985 | 0.96 | 0.969 | 0.936
5 | PC-14 | 0.824 | 0.885 | 0.692 | 0.824 | 0.982 | 1.11 | 1.03 | 0.966 | 1.04 | 0.98 | 0.785 | 1.19 | 0.78 | 1.01 | 1.16 | 0.967 | 0.939 | 0.938 | 0.95 | 0.862
6 | RERF-LC-KJ | 0.738 | 0.814 | 0.66 | 0.696 | 0.767 | 0.901 | 0.735 | 1.02 | 1.25 | 0.832 | 0.589 | 0.519 | 0.598 | 0.681 | 0.627 | 0.873 | 0.861 | 0.871 | 0.906 | 0.904
7 | SK-LU-1 | 0.744 | 0.528 | 0.571 | 0.611 | 0.611 | 0.788 | 0.682 | 0.804 | 1.01 | 0.652 | 0.311 | 0.227 | 0.217 | 0.246 | 0.229 | 0.999 | 1.03 | 1.07 | 1.22 | 1.1
8 | SK-MES-1 | 1.19 | 1.23 | 1.1 | 1.05 | 1.16 | 1.18 | 1.03 | 1.28 | 1.14 | 1.27 | 0.664 | 0.68 | 0.634 | 0.66 | 0.694 | 1.15 | 0.986 | 1.05 | 0.957 | 0.99
9 | SW 1573 | 0.795 | 0.714 | 0.792 | 0.679 | 0.782 | 0.964 | 1.07 | 1.07 | 0.841 | 1.02 | 0.711 | 0.846 | 0.527 | 0.69 | 0.64 | 0.78 | 0.752 | 0.832 | 0.821 | 0.678
